According to patent US7442699B2, “Anilinopyrimidine derivatives as IKK inhibitors and compositions and methods related thereto” (Signal Pharmaceuticals, LLC, priority 2000, dated 2008):
Read-outs that look alike come from different tables or passages of the source.

Molecular target: T1, IKK-2 (Homo sapiens, UniProt O14920, S177E/S181E)
T1 construct: His6
T1 sequence (O14920 1-756 S177E/S181E): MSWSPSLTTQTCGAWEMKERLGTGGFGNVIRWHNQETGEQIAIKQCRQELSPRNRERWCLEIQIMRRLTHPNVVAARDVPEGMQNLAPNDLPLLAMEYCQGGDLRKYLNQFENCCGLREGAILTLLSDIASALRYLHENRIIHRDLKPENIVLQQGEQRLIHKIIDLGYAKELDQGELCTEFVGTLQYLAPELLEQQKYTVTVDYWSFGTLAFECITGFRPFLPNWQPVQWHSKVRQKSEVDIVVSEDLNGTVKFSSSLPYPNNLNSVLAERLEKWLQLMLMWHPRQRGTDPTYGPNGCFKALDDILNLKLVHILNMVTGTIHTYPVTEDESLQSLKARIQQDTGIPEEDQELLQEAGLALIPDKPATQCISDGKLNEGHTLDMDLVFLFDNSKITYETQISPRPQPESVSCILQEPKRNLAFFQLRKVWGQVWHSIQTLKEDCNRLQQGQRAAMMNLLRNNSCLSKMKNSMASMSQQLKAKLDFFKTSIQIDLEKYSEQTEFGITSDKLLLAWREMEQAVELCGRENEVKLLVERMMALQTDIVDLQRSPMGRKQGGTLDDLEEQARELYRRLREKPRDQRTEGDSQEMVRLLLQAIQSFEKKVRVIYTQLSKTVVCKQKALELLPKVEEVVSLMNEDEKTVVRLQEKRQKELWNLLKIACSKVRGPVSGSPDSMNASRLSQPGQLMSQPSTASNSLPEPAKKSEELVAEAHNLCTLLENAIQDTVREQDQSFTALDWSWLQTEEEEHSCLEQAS
Experiment: IKK-2 Enzyme Assay
Assay type: biochemical
Description: The mixture is preincubated for 15 minutes at room temperature. […] After 30 minutes the precipitate is harvested onto a filter plate to which 50 μl of scintillation fluid is added and then quantified by a scintillation counter.

[1] = preferred compounds, 1 μM or less, read-out: IC50 value in the IKK-2 Enzyme Assay
[2] = more preferred compounds, 500 nM or less, read-out: IC50 value in the IKK-2 Enzyme Assay

| Compound | IC50 [1] [nM] | IC50 [2] [nM] | IC50 (IC50 value in the IKK-2 Enzyme Assay, more preferred compounds, 500 nM or less) [nM] | IC50 (IC50 value in the IKK-2 Enzyme Assay, preferred compounds, 1 μM or less) [nM] |
| --- | --- | --- | --- | --- |
| NC(=O)c1ccc(Nc2nccc(-c3ccc(Cl)cc3)n2)cc1 [Compound 1, 4-{[4-(4-chlorophenyl)pyrimidin-2-yl]amino}benzamide] | ≤ 1000 | – | – | – |
| NC(=O)c1ccc(Nc2nccc(-c3ccc(S(=O)(=O)c4ccncc4)cc3)n2)cc1 [Compound 3-8] | ≤ 1000 | ≤ 500 | – | – |
| NC(=O)c1ccc(Nc2nccc(-c3ccc(S(=O)(=O)c4ccccn4)cc3)n2)cc1 [Compound 3-9] | ≤ 1000 | – | – | – |
| NC(=O)c1ccc(Nc2nccc(-c3ccc(S(=O)(=O)c4cccnc4)cc3)n2)cc1 [Compound 3-13] | ≤ 1000 | – | – | – |
| NC(=O)c1ccc(Nc2nccc(-c3ccc(SCCCO)cc3)n2)cc1 [Compound 3-14] | ≤ 1000 | ≤ 500 | – | – |
| NC(=O)c1ccc(Nc2nccc(-c3ccc(S(=O)(=O)CCCO)cc3)n2)cc1 [Compound 3-15] | ≤ 1000 | – | – | – |
| NC(=O)c1ccc(Nc2nccc(-c3ccc(S(=O)(=O)c4ccccc4)cc3)n2)cc1 [Compound 3-21] | ≤ 1000 | ≤ 500 | – | – |
| NC(=O)c1ccc(Nc2nccc(-c3ccc4ccccc4c3)n2)cc1 [Compound 3-34] | ≤ 1000 | – | – | – |
| CN(C)C(=O)c1ccc(Nc2nccc(-c3ccc(Cl)cc3)n2)cc1 [Compound 17-2] | ≤ 1000 | ≤ 500 | – | – |
| CNC(=O)c1ccc(Nc2nccc(-c3ccc(Cl)cc3)n2)cc1 [Compound 17-3] | ≤ 1000 | – | – | – |
| CN(C)C(=O)c1ccc(Nc2nccc(-c3ccc(Br)cc3)n2)cc1 [Compound 17-18] | ≤ 1000 | ≤ 500 | – | – |
| O=C(c1ccc(Nc2nccc(-c3ccc(Cl)cc3)n2)cc1)N1CCC(O)CC1 [Compound 17-20] | ≤ 1000 | ≤ 500 | – | – |
| O=C(NCCCn1ccnc1)c1ccc(Nc2nccc(-c3ccc(Cl)cc3)n2)cc1 [Compound 17-21] | ≤ 1000 | – | – | – |
| CC(=O)NCCNC(=O)c1ccc(Nc2nccc(-c3ccc(Cl)cc3)n2)cc1 [Compound 17-22] | ≤ 1000 | – | – | – |
| O=C(NCCCN1CCCCC1)c1ccc(Nc2nccc(-c3ccc(Cl)cc3)n2)cc1 [Compound 17-23] | ≤ 1000 | – | – | – |
| O=C(NCCCO)c1ccc(Nc2nccc(-c3ccc(Cl)cc3)n2)cc1 [Compound 17-25] | ≤ 1000 | – | – | – |
| O=C(c1ccc(Nc2nccc(-c3ccc(Cl)cc3)n2)cc1)N1CCC[C@@H]1CO [Compound 17-27] | ≤ 1000 | ≤ 500 | – | – |
| O=C(c1ccc(Nc2nccc(-c3ccc(Cl)cc3)n2)cc1)N1CCC(O)C1 (stereo not drawn) [Compound 17-28] | ≤ 1000 | ≤ 500 | – | – |
| CC(=O)N1CCN(C(=O)c2ccc(Nc3nccc(-c4ccc(S(=O)(=O)c5ccncc5)cc4)n3)cc2)CC1 [Compound 17-29] | ≤ 1000 | ≤ 500 | – | – |
| O=C(c1ccc(Nc2nccc(-c3ccc(S(=O)(=O)c4ccncc4)cc3)n2)cc1)N1CCN(C(=O)c2ccco2)CC1 [Compound 17-30] | ≤ 1000 | ≤ 500 | – | – |

| Compound | IC50 [1] [nM] | IC50 [2] [nM] | IC50 (IC50 value in the IKK-2 Enzyme Assay, more preferred compounds, 500 nM or less) [nM] | IC50 (IC50 value in the IKK-2 Enzyme Assay, preferred compounds, 1 μM or less) [nM] |
| --- | --- | --- | --- | --- |
| CN(C)C(=O)c1ccc(Nc2nccc(-c3ccc(SCCCO)cc3)n2)cc1 [Compound 17-31] | ≤ 1000 | ≤ 500 | – | – |
| CC(C)NC(=O)CN1CCN(C(=O)c2ccc(Nc3nccc(-c4ccc(SCCCO)cc4)n3)cc2)CC1 [Compound 17-32] | ≤ 1000 | ≤ 500 | – | – |
| CC(=O)N1CCN(C(=O)c2ccc(Nc3nccc(-c4ccc(SCCCO)cc4)n3)cc2)CC1 [Compound 17-33] | ≤ 1000 | ≤ 500 | – | – |
| O=C(c1ccc(Nc2nccc(-c3ccc(SCCCO)cc3)n2)cc1)N1CCN(C(=O)c2ccco2)CC1 [Compound 17-34] | ≤ 1000 | ≤ 500 | – | – |
| CCN1CCN(C(=O)c2ccc(Nc3nccc(-c4ccc(Cl)cc4)n3)cc2)CC1 [Compound 17-35] | ≤ 1000 | ≤ 500 | – | – |
| CC(C)(C)OC(=O)N1CCN(C(=O)c2ccc(Nc3nccc(-c4ccc(Cl)cc4)n3)cc2)CC1 [Compound 17-36] | ≤ 1000 | ≤ 500 | – | – |
| CCC(=O)N1CCN(C(=O)c2ccc(Nc3nccc(-c4ccc(Cl)cc4)n3)cc2)CC1 [Compound 17-37] | – | ≤ 500 | – | – |
| O=C(NCCCN1CCCC1=O)c1ccc(Nc2nccc(-c3ccc(Cl)cc3)n2)cc1 [Compound 17-54] | ≤ 1000 | – | – | – |
| O=C(c1ccc(Nc2nccc(-c3ccc(Cl)cc3)n2)cc1)N1CCCCC1 [Compound 17-71] | ≤ 1000 | – | – | – |
| COCCCNC(=O)c1ccc(Nc2nccc(-c3ccc(Cl)cc3)n2)cc1 [Compound 17-72] | ≤ 1000 | – | – | – |
| O=C(NCCCN1CCOCC1)c1ccc(Nc2nccc(-c3ccc(Cl)cc3)n2)cc1 [Compound 17-86] | ≤ 1000 | ≤ 500 | – | – |
| COC(=O)CNC(=O)c1ccc(Nc2nccc(-c3ccc(Cl)cc3)n2)cc1 [Compound 17-91] | ≤ 1000 | ≤ 500 | – | – |
| O=C(NCCc1ccccn1)c1ccc(Nc2nccc(-c3ccc(Cl)cc3)n2)cc1 [Compound 17-118] | ≤ 1000 | – | – | – |
| CN1CCN(C(=O)c2ccc(Nc3nccc(-c4ccc(Cl)cc4)n3)cc2)CC1 [Compound 17-127] | ≤ 1000 | ≤ 500 | – | – |
| O=C(c1ccc(Nc2nccc(-c3ccc(Cl)cc3)n2)cc1)N1CCN(Cc2ccc3c(c2)OCO3)CC1 [Compound 17-128] | ≤ 1000 | – | – | – |
| CC(=O)N1CCN(C(=O)c2ccc(Nc3nccc(-c4ccc(Cl)cc4)n3)cc2)CC1 [Compound 17-129] | ≤ 1000 | ≤ 500 | – | – |
| O=CN1CCN(C(=O)c2ccc(Nc3nccc(-c4ccc(Cl)cc4)n3)cc2)CC1 [Compound 17-131] | ≤ 1000 | ≤ 500 | – | – |
| CCCNC(=O)c1ccc(Nc2nccc(-c3ccc(Cl)cc3)n2)cc1 [Compound 17-132] | ≤ 1000 | – | – | – |
| O=C(c1ccc(Nc2nccc(-c3ccc(Cl)cc3)n2)cc1)N1CCOCC1 [Compound 17-133] | ≤ 1000 | ≤ 500 | – | – |
| O=C(c1ccc(Nc2nccc(-c3ccc(Cl)cc3)n2)cc1)N1CCN(c2ccc([N+](=O)[O-])cc2)CC1 [Compound 17-136] | ≤ 1000 | – | – | – |

| Compound | IC50 [1] [nM] | IC50 [2] [nM] | IC50 (IC50 value in the IKK-2 Enzyme Assay, more preferred compounds, 500 nM or less) [nM] | IC50 (IC50 value in the IKK-2 Enzyme Assay, preferred compounds, 1 μM or less) [nM] |
| --- | --- | --- | --- | --- |
| CCOC(=O)N1CCN(C(=O)c2ccc(Nc3nccc(-c4ccc(Cl)cc4)n3)cc2)CC1 [Compound 17-137] | ≤ 1000 | ≤ 500 | – | – |
| O=C(c1ccc(Nc2nccc(-c3ccc(Cl)cc3)n2)cc1)N1CCC2(CC1)OCCO2 [Compound 17-139] | – | – | ≤ 500 | ≤ 1000 |
| CC(C)NC(=O)CN1CCN(C(=O)c2ccc(Nc3nccc(-c4ccc(Cl)cc4)n3)cc2)CC1 [Compound 17-141] | ≤ 1000 | ≤ 500 | – | – |
| O=C(NCCN1CCOCC1)c1ccc(Nc2nccc(-c3ccc(Cl)cc3)n2)cc1 [Compound 17-142] | ≤ 1000 | – | – | – |
| O=C(c1ccc(Nc2nccc(-c3ccc(Cl)cc3)n2)cc1)N1CC=CCC1 [Compound 17-144] | ≤ 1000 | – | – | – |
| CCN(Cc1ccncc1)C(=O)c1ccc(Nc2nccc(-c3ccc(Cl)cc3)n2)cc1 [Compound 17-147] | ≤ 1000 | – | – | – |
| CN(C)CCN(Cc1ccccc1)C(=O)c1ccc(Nc2nccc(-c3ccc(Cl)cc3)n2)cc1 [Compound 17-150] | ≤ 1000 | ≤ 500 | – | – |
| CN(CCc1ccccn1)C(=O)c1ccc(Nc2nccc(-c3ccc(Cl)cc3)n2)cc1 [Compound 17-151] | ≤ 1000 | – | – | – |
| CN1CCCC1CCNC(=O)c1ccc(Nc2nccc(-c3ccc(Cl)cc3)n2)cc1 (stereo not drawn) [Compound 17-152] | ≤ 1000 | – | – | – |
| CCN(CC)CCCNC(=O)c1ccc(Nc2nccc(-c3ccc(Cl)cc3)n2)cc1 [Compound 17-153] | ≤ 1000 | – | – | – |
| CN(C)CCCNC(=O)c1ccc(Nc2nccc(-c3ccc(Cl)cc3)n2)cc1 [Compound 17-154] | ≤ 1000 | ≤ 500 | – | – |
| O=C(c1ccc(Nc2nccc(-c3ccc(Cl)cc3)n2)cc1)N1CCN(c2ccccc2)CC1 [Compound 17-158] | ≤ 1000 | – | – | – |
| O=C(c1ccc(Nc2nccc(-c3ccc(Cl)cc3)n2)cc1)N1CCN(C(=O)c2ccco2)CC1 [Compound 17-159] | ≤ 1000 | ≤ 500 | – | – |
| CC(=O)N1CCCN(C(=O)c2ccc(Nc3nccc(-c4ccc(Cl)cc4)n3)cc2)CC1 [Compound 17-160] | ≤ 1000 | ≤ 500 | – | – |
| O=C(c1ccc(Nc2nccc(-c3ccc(Cl)cc3)n2)cc1)N1CCN(Cc2cccnc2)CC1 [Compound 17-161] | ≤ 1000 | ≤ 500 | – | – |
| CCN(C(C)=O)C1CCN(C(=O)c2ccc(Nc3nccc(-c4ccc(Cl)cc4)n3)cc2)C1 (stereo not drawn) [Compound 17-162] | ≤ 1000 | ≤ 500 | – | – |
| CC(=O)N(C)C1CCN(C(=O)c2ccc(Nc3nccc(-c4ccc(Cl)cc4)n3)cc2)C1 (stereo not drawn) [Compound 17-163] | ≤ 1000 | ≤ 500 | – | – |
| O=C(c1ccc(Nc2nccc(-c3ccc(Cl)cc3)n2)cc1)N1CCC(N2CCCCC2)CC1 [Compound 17-169] | ≤ 1000 | ≤ 500 | – | – |
| O=C(c1ccc(Nc2nccc(-c3ccc(Cl)cc3)n2)cc1)N1CCC(N2CCCC2)CC1 [Compound 17-171] | ≤ 1000 | ≤ 500 | – | – |
